Data on eleven molecules can be found in patent US7718768B2, “Biologically active peptide [sequence]” (CMS Peptides Patent Holding Company Limited, priority 2001, dated 2010).

Marks after values point to notes of the source that are not given here. No end group written: not given here.

Experiment [1] concerns B16 melanoma cells. Description: lung metastasis foci of inoculated B16 melanoma cells, postmortem examination. Format: in vivo, C57BL/6 mice. As for the experimental part:
Intraperitoneal injection, once per day. […] Treatment of all groups with testing substance lasted for 30 days or until the animal died unless otherwise specified. […] The cell concentration was adjusted to 1×10^5 per ml with Hank's solution and 0.1 ml of the cell suspension was injected via the tail vein into the testing mice to generate the B16 melanoma bearing animal model. Treatment with test substance started as described in section Method 1. […] Postmortum Examination of the Animals was Performed. The Pathological Changes were Recorded, and the Numbers of Melanoma Lung Metastasis Foci were Counted. Results 1. The Effect of Peptide on the Cellular Phagocytosis in BALB/c Mice with Transplanted S180 Sarcoma (Method 2.1)

Experiment [2] deals with ascitic fluid type liver cancer H22. Description: survival of mice with transplanted ascitic fluid type liver cancer H22. Format: in vivo, BALB/c mice. The note with it: for Survival index: versus saline group. As for the experimental part:
(§1) Intraperitoneal injection, once per day. […] Treatment of all groups with testing substance lasted for 30 days or until the animal died unless otherwise specified.
Stock H22 cells were incubated in DMEM/F12 medium supplemented with 10% fetal bovine serum, 37° C./5% CO2 for 72 hrs, then washed 3-4 times with Hank's solution at room temperature. Adjust cell concentration to 1-2×10^9 per liter with Hank's solution. 0.2 ml of the cell suspension was implanted to the abdominal cavity of several BALB/c mice for 6-8 days. The mice were killed by cervical vertebra dislocation. Ascitic fluid of the mice was collected asceptically and the cell concentration adjusted to 1×10^6 per ml with Hank's solution. 0.2 ml of the cell suspension was implanted into the abdominal cavity of healthy mice to generate the H22 carrying mouse model for ascitic fluid type liver cancer. Administration of test substance started as described in section Method 1. Survival data of the mice was recorded. If the animal survived longer than the experiment, the survival days was recorded as the duration of the experiment. Mean survival day was obtained by the Kaplan-meier method in the Survival option of the SPSS software. The survival index was calculated according to the following formula: Survival index(mean survival days in treatment group−mean survival days of control group)÷mean survival days of control group×100% 4. The Effect of Peptides on the Cellular Immunity of BALB/c Mice with Transplanted Ascitic Fluid Type Liver Cancer H22 4.1 Preparation of Spleen Cell Suspension^[1,4]

Experiment [3] is described as follows: body weight of rats fed high nutrition diet (obesity induced by over-feeding). Format: in vivo, Sprague-Dawley (SD) rats. The procedure:
Sprague-Dawley (SD) rats, weighing 145±10 g, were supplied by the Center of Experimental Animal of Guangzhou University of Traditional Chinese Medicine, PR China (certificate No.: 2000A019). Peptides were custom synthesized (of L-amino acids origin) by American Peptide Company, Inc., USA, and were diluted to 10 μg/ml in normal saline. The high and normal nutrition diets were prepared in compliance with the guideline for pre-clinical research of anti-obesity drug, issued by SDA (State Drug Administration), PR China^[1].
Healthy rats were randomized into the experiment, positive control, and negative control groups. 10 rats per group, half male and half female. The experiment group of rats was fed with high nutrition diet for 5 weeks with simultaneous intramuscular injection of 300 μg/kg/day peptide, once per day. Positive control group received the same high nutrition diet but placebo saline injection, while negative control group, used to proof successful establishment of obesity model, received normal nutrition diet and placebo saline injection. After 5 weeks treatment, injection was stopped and the same diet was maintained for another 3 weeks. The rats were weighed at once per week interval. Behaviour of the rats was also observed.
The data were presented as mean±standard deviation. Paired t test or single-factor ANOVA was used for inter and intra group comparison. Statistical significance cut-off was at P≦0.05.

Experiment [4] relates to Duck Hepatitis B Virus (DHBV). The experiment is described as follows: Chongqing duck hepatitis B model, serum DHBV DNA by dot-blot hybridization. Format: in vivo, Chongqing ducks. The note with it: CMS001 50 μg/kg/day i.p., lamivudine 50 mg/kg/day oral.
Experiment [5] concerns mononuclear phagocyte. Description: phagocytosis index in mice with transplanted S180 sarcoma. Format: in vivo, BALB/c mice. The procedure: as §1
(§2) Stock S180 sarcoma cells were incubated in DMEM/F12 medium supplemented with 10% fetal bovine serum, 37° C., 5% CO2 for 72 hrs, then washed 3-4 times with Hank's solution at room temperature. Adjust the cell concentration to 1-2×10^9 per liter with Hank's solution. […] The mice were killed by cervical vertebra dislocation. Vigorously growing and non-disrupted tumor masses were harvested and washed clean with sterile saline. The tissue was dispersed in saline to a homogenous cell suspension, in a ratio of 1 g tissue to 4 ml saline. The sarcoma bearing mice model was prepared with an injection of 0.2 ml cell suspension through the armpit. Administration of test substance treatment started as described in section Method 1.
2.1 The effect of peptides on the phagocytotic function of mononuclear phagocyte in mice with S180 sarcoma was analyzed by injecting mice from the tail vein with 0.1 ml/10 g body weight of Indian ink (1:5 dilution with normal saline) on the second day after the last test substance administration. At one minute and five minutes after the injection, 20 μl blood was obtained from the eye canthus with heparinised tubing. The blood was mixed with 2 ml 0.1% w/v Na2CO3 and then OD680nm obtained. The outline clear index K was calculated by the following formula: K=(lgA1−lgA2)÷(t2−t1)
(§3) After the phagocytosis index study, the mice were killed by cervical vertebra dislocation. The liver, spleen, and cancer tissue were dissected, blotted dry, and weighed.
1. The Phagocytosis Index α was Calculated as Below: α=(^3√K)×(W÷WLS)

Experiment [6] has as its system S180 sarcoma cells. Description: growth of transplanted S180 sarcoma. Type of experiment: in vivo, BALB/c mice. Conditions: for Tumor inhibition index: versus saline group. As for the experimental part: as §1, §2, §3
2.2 The Tumor Growth Inhibition Index was Calculated According to the Following Formula: Tumor growth inhibition index=(mean tumor weight of control group−mean tumor weight of treatment group)÷mean tumor weight of control group 3.

[7] abbreviates: 3 × 10^5 IU/kg i.p. once per day.

IGMESAGIHETTY [CMS016]: the “B16 metastatic foci in the lung, postmortem examination” value in experiment [1] (5 μg/kg/day i.p.) and in experiment [1] (500 μg/kg/day i.p.) was “did not show any sign of existence of B16 metastatic foci in the lung” each time.

As for KAVGHLDDLPGAL [CMS008], the “B16 metastatic foci in the lung, postmortem examination” value in experiment [1] (0.5 μg/kg/day i.p.), in experiment [1] (5 μg/kg/day i.p.) and in experiment [1] (50 μg/kg/day i.p.) was “did not show any sign of existence of B16 metastatic foci in the lung” each time. In addition, in experiment [2] (5 μg/kg i.p. once per day), the Survival days is listed as 50.7 ± 20.9*^& days. Moreover, in experiment [2] (5 μg/kg i.p. once per day), the Survival index came out at 67.8%.

For the molecule PSIVGRPRHQGVM [CMS015], the body weight turned out to be 129.2 ± 3.3 g in experiment [3] (Pre-treatment, Female n = 5, 300 μg/kg/day intramuscular); 145.6 ± 8.5 g in experiment [3] (Pre-treatment, Male n = 5, 300 μg/kg/day intramuscular); 157.8 ± 8.3 g in experiment [3] (Week 1, Female, 300 μg/kg/day intramuscular); 183.8 ± 10.6 g in experiment [3] (Week 1, Male, 300 μg/kg/day intramuscular); 176.0 ± 11.2 g in experiment [3] (Week 2, Female, 300 μg/kg/day intramuscular); 220.6 ± 12.2 g in experiment [3] (Week 2, Male, 300 μg/kg/day intramuscular). In addition, the body weight is listed as 196.0 ± 10.5 g in experiment [3] (Week 3, Female, 300 μg/kg/day intramuscular); 239.0 ± 16.0 g in experiment [3] (Week 3, Male, 300 μg/kg/day intramuscular); 212.0 ± 13.5 g in experiment [3] (Week 4, Female, 300 μg/kg/day intramuscular); 258.2 ± 18.1 g in experiment [3] (Week 4, Male, 300 μg/kg/day intramuscular); 221.4 ± 13.2 g in experiment [3] (Week 5 (last week of injection), Female, 300 μg/kg/day intramuscular); 268.8 ± 17.7 g in experiment [3] (Week 5 (last week of injection), Male, 300 μg/kg/day intramuscular). The body weight in experiment [3] (Week 6 (injection stopped after week 5), Female) came to 235.6 ± 16.3 g; in experiment [3] (Week 6 (injection stopped after week 5), Male), 299.4 ± 21.2 g; in experiment [3] (Week 7 (injection stopped after week 5), Female) it was 242.2 ± 18.8 g; in experiment [3] (Week 7 (injection stopped after week 5), Male), 310.4 ± 25.9 g; in experiment [3] (Week 8 (injection stopped after week 5), Female), 252.8 ± 22.5 g; in experiment [3] (Week 8 (injection stopped after week 5), Male), 337.4 ± 30.6 g.

In the case of PTTKTYFPHF [CMS001], the “Serum DHBV DNA level” value in experiment [4] (Day 0 (before treatment), Mean ± Standard Deviation) is recorded as 21 ± 18 10^3 units; in experiment [4] (Day 7 of treatment), 11 ± 13 10^3 units; in experiment [4] (Day 14 of treatment) it was 20 ± 18 10^3 units; in experiment [4] (Day 21 of treatment), 14 ± 14 10^3 units; in experiment [4] (Day 28 (end of 4 weeks treatment)), 5 ± 3* 10^3 units; in experiment [4] (Day 35 (one week after termination of treatment)), 18 ± 16 10^3 units. For the same molecule, the figures for the Phagocytosis index in experiment [5] (5 μg/kg i.p. once per day) and in experiment [5] (50 μg/kg i.p. once per day) were 6.67 ± 0.43*^ and 6.24 ± 0.33*^, respectively.

Consider “Phe Glu Glu Glu (FEEE; listed as Sus scrofa) [CMS032]”, for which, in experiment [2] (0.5 μg/kg i.p. once per day), the Survival days is on record as 42.8 ± 12.2*^^&$ days and the Survival index was determined as 63.3%.

“Phe Val Asn Asp (FVND; listed as Sus scrofa) [CMS035]”: in experiment [6] (5 μg/kg i.p. once per day), the Tumor weight stood at 0.71 ± 0.37 g and the Tumor inhibition index is on record as 44.6%.

In experiment [6] (0.5 μg/kg i.p. once per day), “Pro Glu Asn Phe (PENF; listed as Sus scrofa) [CMS034]” gave a Tumor weight of 0.83 ± 0.48 g and a Tumor inhibition index of 35.9%. In addition, the Phagocytosis index in experiment [5] (0.5 μg/kg i.p. once per day) is on record as 6.35 ± 1.02. Also, in experiment [5] (5 μg/kg i.p. once per day), the Phagocytosis index was 6.20 ± 0.44*^.

As for RVAPEEHPTL [CMS011], in experiment [2] (5 μg/kg i.p. once per day), the Survival days is 36.4 ± 22.2*^& days and the Survival index is 60.2%.

Turning to “Tyr Ser Leu (YSL; listed as Sus scrofa) [CMS024]”, the Survival days is 46.4 ± 14.8*^^&$ days in experiment [2] (0.5 μg/kg i.p. once per day), 40.6 ± 14.6*^&$ days in experiment [2] (5 μg/kg i.p. once per day) and 36.3 ± 12.7*^&$ days in experiment [2] (50 μg/kg i.p. once per day). For the same molecule, the Survival index in experiment [2] (0.5 μg/kg i.p. once per day) is 76.9%; in experiment [2] (5 μg/kg i.p. once per day), 54.8%; in experiment [2] (50 μg/kg i.p. once per day) it was 38.4%. Besides, the “postmortem examination of the long-surviving mice” value in experiment [2] (0.5 μg/kg/day) is recorded as “did not show sign of tumor establishment”. Moreover, the “share of mice surviving longer than 90 days” value in experiment [2] (0.5 μg/kg/day, n=6, two months after the experiment ended) was “more than 30%”.

VAPEEHPTLLTEAPLNPK [CMS010]: in experiment [6] (500 μg/kg i.p. once per day), the Tumor weight was 0.67 ± 0.35 g and the Tumor inhibition index is reported as 48.4%.

B1: IFN-γ: recombinant mouse interferon-γ, Beijing Biotech Inc.; positive control immunostimulant (protein, UniProt P01580 23-155, looked up)
Interferon gamma: HGTVIESLESLNNYFNSSGIDVEEKSLFLDIWRNWQKDGDMKILQSQIISFYLRLFEVLKDNQAISNNISVIESHLITTFFSNSKAKKDAFMSIAKFEVNNPQVQRQAFNELIRVVHQLLPESSLRKRKRSRC
For the molecule B1, in experiment [6] (setting [7]), the Tumor weight is 0.96 ± 0.45 g and the Tumor inhibition index stood at 25.3%. For the same molecule, in experiment [5] (setting [7]), the Phagocytosis index came out at 5.45 ± 0.71. Besides, in experiment [2] (setting [7]), the Survival days came to 27.8 ± 7.5 days and the Survival index came to 6.1%.
